According to patent US20110091472A1, “COMPOSITIONS FOR TREATING PSORIASIS” (Novartis Vaccines and Diagnostic, Inc., priority 1999, published 2011):

Test system: lesional psoriatic skin grafted onto SCID mice
Assay: SCID mouse psoriatic skin graft model, methotrexate alone or in combination with low dose 5D12
Type: in vivo
Conditions: methotrexate 0.1 to 0.4 mg/kg increasing regimen in combination with the isotype control antibody
Protocol: This experiment was conducted, using the mouse model described in Example 1, to quantitate the anti-psoriatic effects of low doses of anti-CD40 antibody. The low-dose treatment with antibody 5D12 consisted of intraperitoneal injections of mice with 0.5 mg/kg 5D12 every other day for two weeks. High-dose treatment consisted of intraperitoneal injections of mice with 5 mg/kg 5D12 every other day for two weeks. […] The treatment control group consisted of mice injected intraperitoneally with isotype control antibody for two weeks. Four weeks after the termination of the treatments, the grafts were harvested and either fixed in formaldehyde or snap-frozen. Fixed material was used for morphological analyses based on H+E staining, and the snap-frozen material used for additional immunohistochemical analyses.
The effects of methotrexate treatment alone or in combination with low dose (0.5 mg/kg) 5D12 treatment were evaluated. An increasing dosing regimen was chosen, starting with 0.1 mg/kg and increasing the dose by 0.05 mg/kg every week until 0.4 mg/kg was reached. The scheme was combined with the application of the isotype control antibody or with the low dose 5D12 treatment schedule. The isotype control treatment served as a negative control and the low dose 5D12 treatment as a positive control.

CN(Cc1cnc2nc(N)nc(N)c2n1)c1ccc(C(=O)N[C@@H](CCC(=O)O)C(=O)O)cc1 [Methotrexate]
effects on epidermal thickness (in words): only minimal effects on epidermal thickness
